{"source": "PubChem BioAssay (NCI)", "assay_in_all_cases": "DTP human tumour cell line panel, 48 h", "key": {"IGROV1 ovarian": {"system": "IGROV1 ovarian"}, "A549 NSCLC": {"system": "A549 NSCLC"}, "NCI-H460 lung": {"system": "NCI-H460 lung"}, "HOP-18 NSCLC": {"system": "HOP-18 NSCLC"}, "HCT-15 colon": {"system": "HCT-15 colon"}, "EKVX NSCLC": {"system": "EKVX NSCLC"}, "SF-539 CNS": {"system": "SF-539 CNS"}, "RXF 393 renal": {"system": "RXF 393 renal"}, "SNB-75 CNS": {"system": "SNB-75 CNS"}, "COLO 205 colon": {"system": "COLO 205 colon"}, "HCT-116 colon": {"system": "HCT-116 colon"}, "MCF7 breast": {"system": "MCF7 breast"}, "HCC-2998 colon": {"system": "HCC-2998 colon"}, "OVCAR-5 ovarian": {"system": "OVCAR-5 ovarian"}, "SF-295 CNS": {"system": "SF-295 CNS"}, "SK-MEL-2 melanoma": {"system": "SK-MEL-2 melanoma"}, "LOX IMVI melanoma": {"system": "LOX IMVI melanoma"}, "DU-145 prostate": {"system": "DU-145 prostate"}, "A498 renal": {"system": "A498 renal"}, "OVCAR-4 ovarian": {"system": "OVCAR-4 ovarian"}, "CCRF-CEM leukemia": {"system": "CCRF-CEM leukemia"}, "786-0 renal": {"system": "786-0 renal"}, "NCI-H226 lung": {"system": "NCI-H226 lung"}, "OVCAR-3 ovarian": {"system": "OVCAR-3 ovarian"}, "SN12C renal": {"system": "SN12C renal"}, "NCI-H23 lung": {"system": "NCI-H23 lung"}, "BT-549 breast": {"system": "BT-549 breast"}, "K-562 leukemia": {"system": "K-562 leukemia"}, "SNB-78 CNS": {"system": "SNB-78 CNS"}, "KM20L2 colon": {"system": "KM20L2 colon"}, "TK-10 renal": {"system": "TK-10 renal"}, "DMS 114 small cell lung": {"system": "DMS 114 small cell lung"}, "MOLT-4 leukemia": {"system": "MOLT-4 leukemia"}, "MDA-MB-231 breast": {"system": "MDA-MB-231 breast"}, "UO-31 renal": {"system": "UO-31 renal"}, "T-47D breast": {"system": "T-47D breast"}, "PC-3 prostate": {"system": "PC-3 prostate"}, "M19-MEL melanoma": {"system": "M19-MEL melanoma"}, "SF-268 CNS": {"system": "SF-268 CNS"}, "SK-OV-3 ovarian": {"system": "SK-OV-3 ovarian"}, "UACC-257 melanoma": {"system": "UACC-257 melanoma"}, "HOP-62 NSCLC": {"system": "HOP-62 NSCLC"}, "SK-MEL-5 melanoma": {"system": "SK-MEL-5 melanoma"}, "HL-60(TB) leukemia": {"system": "HL-60(TB) leukemia"}, "OVCAR-8 ovarian": {"system": "OVCAR-8 ovarian"}, "ACHN renal": {"system": "ACHN renal"}, "SK-MEL-28 melanoma": {"system": "SK-MEL-28 melanoma"}, "MDA-N": {"system": "MDA-N"}, "HOP-92 NSCLC": {"system": "HOP-92 NSCLC"}, "KM12 colon": {"system": "KM12 colon"}, "HS 578T breast": {"system": "HS 578T breast"}, "LXFL 529 NSCLC": {"system": "LXFL 529 NSCLC"}, "DLD-1 colon": {"system": "DLD-1 colon"}, "M14 melanoma": {"system": "M14 melanoma"}, "MALME-3M melanoma": {"system": "MALME-3M melanoma"}, "SW-620 colon": {"system": "SW-620 colon"}, "CAKI-1 renal": {"system": "CAKI-1 renal"}, "RPMI-8226 leukemia": {"system": "RPMI-8226 leukemia"}, "UACC-62 melanoma": {"system": "UACC-62 melanoma"}, "U251 CNS": {"system": "U251 CNS"}, "SNB-19 CNS": {"system": "SNB-19 CNS"}, "HT29 colon": {"system": "HT29 colon"}, "SR leukemia": {"system": "SR leukemia"}, "NCI-H522 lung": {"system": "NCI-H522 lung"}}, "note": "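Method: 48-hour compound exposure of cells in 96-well plates, five concentrations, linear interpolation of endpoints. The concentration for full growth arrest is given as TGI.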", "data": [{"smiles": "C=C[C@]1(C)CC(O)C2C(=C)C(=O)OC2[C@H]1C(=C)C=O", "note": "(some centres undefined)", "values": [{"measurement": "TGI", "setting": "IGROV1 ovarian", "value": 25, "unit": "µM"}, {"measurement": "TGI", "setting": "A549 NSCLC", "value": 43.6, "unit": "µM"}, {"measurement": "TGI", "setting": "NCI-H460 lung", "value": 31.8, "unit": "µM"}, {"measurement": "TGI", "setting": "HOP-18 NSCLC", "value": 15.1, "unit": "µM"}, {"measurement": "TGI", "setting": "HCT-15 colon", "value": 7.22, "unit": "µM"}, {"measurement": "TGI", "setting": "EKVX NSCLC", "value": 33.7, "unit": "µM"}, {"measurement": "TGI", "setting": "SF-539 CNS", "value": 10.5, "unit": "µM"}, {"measurement": "TGI", "setting": "RXF 393 renal", "value": 4.83, "unit": "µM"}, {"measurement": "TGI", "setting": "SNB-75 CNS", "value": 47.9, "unit": "µM"}, {"measurement": "TGI", "setting": "COLO 205 colon", "value": 21.7, "unit": "µM"}, {"measurement": "TGI", "setting": "HCT-116 colon", "value": 3.26, "unit": "µM"}, {"measurement": "TGI", "setting": "MCF7 breast", "value": 3.18, "unit": "µM"}, {"measurement": "TGI", "setting": "HCC-2998 colon", "value": 27.9, "unit": "µM"}, {"measurement": "TGI", "setting": "OVCAR-5 ovarian", "value": 24.8, "unit": "µM"}, {"measurement": "TGI", "setting": "SF-295 CNS", "value": 30.2, "unit": "µM"}, {"measurement": "TGI", "setting": "SK-MEL-2 melanoma", "value": 13.4, "unit": "µM"}, {"measurement": "TGI", "setting": "LOX IMVI melanoma", "value": 4.6, "unit": "µM"}, {"measurement": "TGI", "setting": "DU-145 prostate", "value": 27.1, "unit": "µM"}, {"measurement": "TGI", "setting": "A498 renal", "value": 14.7, "unit": "µM"}, {"measurement": "TGI", "setting": "OVCAR-4 ovarian", "value": 17.7, "unit": "µM"}, {"measurement": "TGI", "setting": "CCRF-CEM leukemia", "value": 4.4, "unit": "µM"}, {"measurement": "TGI", "setting": "786-0 renal", "value": 4.47, "unit": "µM"}, {"measurement": "TGI", "setting": "NCI-H226 lung", "value": 13.9, "unit": "µM"}, {"measurement": "TGI", "setting": "OVCAR-3 ovarian", "value": 7.24, "unit": "µM"}, {"measurement": "TGI", "setting": "SN12C renal", "value": 5.88, "unit": "µM"}, {"measurement": "TGI", "setting": "NCI-H23 lung", "value": 7.62, "unit": "µM"}, {"measurement": "TGI", "setting": "BT-549 breast", "value": 15.8, "unit": "µM"}, {"measurement": "TGI", "setting": "K-562 leukemia", "value": 8.52, "unit": "µM"}, {"measurement": "TGI", "setting": "SNB-78 CNS", "value": 13.4, "unit": "µM"}, {"measurement": "TGI", "setting": "KM20L2 colon", "value": 17.4, "unit": "µM"}, {"measurement": "TGI", "setting": "TK-10 renal", "value": 11.4, "unit": "µM"}, {"measurement": "TGI", "setting": "DMS 114 small cell lung", "value": 22.6, "unit": "µM"}, {"measurement": "TGI", "setting": "MOLT-4 leukemia", "value": 21.8, "unit": "µM"}, {"measurement": "TGI", "setting": "MDA-MB-231 breast", "value": 10.3, "unit": "µM"}, {"measurement": "TGI", "setting": "UO-31 renal", "value": 13.7, "unit": "µM"}, {"measurement": "TGI", "setting": "T-47D breast", "value": 9.35, "unit": "µM"}, {"measurement": "TGI", "setting": "PC-3 prostate", "value": 10, "unit": "µM"}, {"measurement": "TGI", "setting": "M19-MEL melanoma", "value": 7.98, "unit": "µM"}, {"measurement": "TGI", "setting": "SF-268 CNS", "value": 8.21, "unit": "µM"}, {"measurement": "TGI", "setting": "SK-OV-3 ovarian", "value": 66.2, "unit": "µM"}, {"measurement": "TGI", "setting": "UACC-257 melanoma", "value": 4.31, "unit": "µM"}, {"measurement": "TGI", "setting": "HOP-62 NSCLC", "value": 34, "unit": "µM"}, {"measurement": "TGI", "setting": "SK-MEL-5 melanoma", "value": 6.66, "unit": "µM"}, {"measurement": "TGI", "setting": "HL-60(TB) leukemia", "value": 2.41, "unit": "µM"}, {"measurement": "TGI", "setting": "OVCAR-8 ovarian", "value": 6.74, "unit": "µM"}, {"measurement": "TGI", "setting": "ACHN renal", "value": 6.33, "unit": "µM"}, {"measurement": "TGI", "setting": "SK-MEL-28 melanoma", "value": 4.37, "unit": "µM"}, {"measurement": "TGI", "setting": "MDA-N", "value": 36.8, "unit": "µM"}, {"measurement": "TGI", "setting": "HOP-92 NSCLC", "value": 6.08, "unit": "µM"}, {"measurement": "TGI", "setting": "KM12 colon", "value": 12.5, "unit": "µM"}, {"measurement": "TGI", "setting": "HS 578T breast", "value": "> 100", "unit": "µM"}, {"measurement": "TGI", "setting": "LXFL 529 NSCLC", "value": 3.47, "unit": "µM"}, {"measurement": "TGI", "setting": "DLD-1 colon", "value": 6.73, "unit": "µM"}, {"measurement": "TGI", "setting": "M14 melanoma", "value": 8.18, "unit": "µM"}, {"measurement": "TGI", "setting": "MALME-3M melanoma", "value": 3.62, "unit": "µM"}, {"measurement": "TGI", "setting": "SW-620 colon", "value": 4.19, "unit": "µM"}, {"measurement": "TGI", "setting": "CAKI-1 renal", "value": 13.5, "unit": "µM"}, {"measurement": "TGI", "setting": "RPMI-8226 leukemia", "value": 5.94, "unit": "µM"}, {"measurement": "TGI", "setting": "UACC-62 melanoma", "value": 3.83, "unit": "µM"}, {"measurement": "TGI", "setting": "U251 CNS", "value": 24.8, "unit": "µM"}, {"measurement": "TGI", "setting": "SNB-19 CNS", "value": 44.1, "unit": "µM"}, {"measurement": "TGI", "setting": "HT29 colon", "value": 7.05, "unit": "µM"}, {"measurement": "TGI", "setting": "SR leukemia", "value": 20, "unit": "µM"}, {"measurement": "TGI", "setting": "NCI-H522 lung", "value": 2.35, "unit": "µM"}]}]}
